# Measured values as given in publication PMC10698032, “A monoacylglycerol lipase inhibitor showing therapeutic efficacy in mice without central side effects or dependence” (Nature Communications, 2023).
# Legend:
# Test in all cases: biochemical
# [1] = molecular target: T1, 5-HT1A(h) (agonist radioligand) (Homo sapiens, UniProt P08908); parameters: CEREP off-target panel, radioligand binding, inhibition of control specific binding; settings: read-out: % Inhibition of Control Specific Binding, Mean
# T1 construct: gene HTR1A; agonist radioligand
# [2] = molecular target: T2, 5-HT2B(h) (agonist radioligand) (Homo sapiens, UniProt P41595); parameters: CEREP off-target panel, radioligand binding, inhibition of control specific binding; settings: read-out: % Inhibition of Control Specific Binding, Mean
# T2 construct: gene HTR2B; agonist radioligand
# [3] = molecular target: T3, AR(h) (agonist radioligand) (Homo sapiens, UniProt P10275); parameters: CEREP off-target panel, radioligand binding, inhibition of control specific binding; settings: read-out: % Inhibition of Control Specific Binding, Mean
# T3 construct: agonist radioligand
# T3 sequence (P10275 whole entry): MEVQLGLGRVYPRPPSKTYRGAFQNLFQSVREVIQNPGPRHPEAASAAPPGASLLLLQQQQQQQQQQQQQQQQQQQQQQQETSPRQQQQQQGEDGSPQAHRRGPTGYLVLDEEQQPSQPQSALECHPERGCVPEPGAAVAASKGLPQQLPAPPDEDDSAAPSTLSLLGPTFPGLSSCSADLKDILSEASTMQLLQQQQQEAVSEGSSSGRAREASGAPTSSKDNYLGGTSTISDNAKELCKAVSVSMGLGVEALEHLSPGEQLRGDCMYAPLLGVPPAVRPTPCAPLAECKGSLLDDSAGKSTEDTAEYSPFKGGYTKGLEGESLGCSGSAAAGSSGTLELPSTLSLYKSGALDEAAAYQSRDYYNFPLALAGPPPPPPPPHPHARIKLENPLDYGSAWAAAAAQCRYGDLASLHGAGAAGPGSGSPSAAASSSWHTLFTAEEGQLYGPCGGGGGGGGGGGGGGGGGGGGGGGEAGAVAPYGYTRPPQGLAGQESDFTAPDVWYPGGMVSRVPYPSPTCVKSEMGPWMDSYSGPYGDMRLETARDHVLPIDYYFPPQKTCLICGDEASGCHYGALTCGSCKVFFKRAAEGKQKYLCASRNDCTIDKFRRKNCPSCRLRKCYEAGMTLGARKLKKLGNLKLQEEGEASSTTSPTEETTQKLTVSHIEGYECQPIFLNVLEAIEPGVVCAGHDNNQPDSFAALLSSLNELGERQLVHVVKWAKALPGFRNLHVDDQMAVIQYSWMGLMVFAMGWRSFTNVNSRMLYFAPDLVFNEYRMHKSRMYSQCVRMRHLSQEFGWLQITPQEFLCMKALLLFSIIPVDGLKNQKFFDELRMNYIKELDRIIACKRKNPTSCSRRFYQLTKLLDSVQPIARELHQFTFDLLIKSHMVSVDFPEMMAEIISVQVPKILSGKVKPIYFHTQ
# [4] = molecular target: T4, CCK1 (CCKA) (h) (agonist radioligand) (Homo sapiens, UniProt P32238); parameters: CEREP off-target panel, radioligand binding, inhibition of control specific binding; settings: read-out: % Inhibition of Control Specific Binding, Mean
# T4 construct: gene CCKAR; agonist radioligand
# [5] = molecular target: T5, D2S(h) (agonist radioligand) (Homo sapiens, UniProt P14416); parameters: CEREP off-target panel, radioligand binding, inhibition of control specific binding; settings: read-out: % Inhibition of Control Specific Binding, Mean
# T5 construct: gene DRD2; short isoform (D2S), agonist radioligand
# [6] = molecular target: T6, ETA(h) (agonist radioligand) (Homo sapiens, UniProt P25101); parameters: CEREP off-target panel, radioligand binding, inhibition of control specific binding; settings: read-out: % Inhibition of Control Specific Binding, Mean
# T6 construct: gene EDNRA; agonist radioligand
# T6 sequence (P25101 whole entry): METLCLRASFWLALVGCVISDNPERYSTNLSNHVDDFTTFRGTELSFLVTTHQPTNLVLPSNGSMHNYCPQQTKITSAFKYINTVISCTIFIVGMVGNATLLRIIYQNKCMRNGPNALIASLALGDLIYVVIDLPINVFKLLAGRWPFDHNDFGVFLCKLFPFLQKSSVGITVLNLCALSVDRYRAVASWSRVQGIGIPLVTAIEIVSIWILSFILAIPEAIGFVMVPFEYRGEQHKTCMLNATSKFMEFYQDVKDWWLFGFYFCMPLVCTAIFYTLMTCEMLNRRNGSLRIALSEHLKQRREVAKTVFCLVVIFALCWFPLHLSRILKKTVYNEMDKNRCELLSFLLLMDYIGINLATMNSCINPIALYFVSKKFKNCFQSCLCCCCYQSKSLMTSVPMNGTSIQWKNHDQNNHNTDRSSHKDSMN
# [7] = molecular target: T7, GR (h) (agonist radioligand) (Homo sapiens, UniProt P04150); parameters: CEREP off-target panel, radioligand binding, inhibition of control specific binding; settings: read-out: % Inhibition of Control Specific Binding, Mean
# T7 construct: gene NR3C1; agonist radioligand
# [8] = molecular target: T8, M2 (h) (antagonist radioligand) (Homo sapiens, UniProt P08172); parameters: CEREP off-target panel, radioligand binding, inhibition of control specific binding; settings: read-out: % Inhibition of Control Specific Binding, Mean
# T8 construct: gene CHRM2; antagonist radioligand
# [9] = molecular target: T9, V1a(h) (agonist radioligand) (Homo sapiens, UniProt P37288); parameters: CEREP off-target panel, radioligand binding, inhibition of control specific binding; settings: read-out: % Inhibition of Control Specific Binding, Mean
# T9 construct: gene AVPR1A; agonist radioligand
# [10] = molecular target: T10, kappa (h) (KOP) (agonist radioligand) (Homo sapiens, UniProt P41145); parameters: CEREP off-target panel, radioligand binding, inhibition of control specific binding; settings: read-out: % Inhibition of Control Specific Binding, Mean
# T10 construct: gene OPRK1; agonist radioligand
# T10 sequence (P41145 whole entry): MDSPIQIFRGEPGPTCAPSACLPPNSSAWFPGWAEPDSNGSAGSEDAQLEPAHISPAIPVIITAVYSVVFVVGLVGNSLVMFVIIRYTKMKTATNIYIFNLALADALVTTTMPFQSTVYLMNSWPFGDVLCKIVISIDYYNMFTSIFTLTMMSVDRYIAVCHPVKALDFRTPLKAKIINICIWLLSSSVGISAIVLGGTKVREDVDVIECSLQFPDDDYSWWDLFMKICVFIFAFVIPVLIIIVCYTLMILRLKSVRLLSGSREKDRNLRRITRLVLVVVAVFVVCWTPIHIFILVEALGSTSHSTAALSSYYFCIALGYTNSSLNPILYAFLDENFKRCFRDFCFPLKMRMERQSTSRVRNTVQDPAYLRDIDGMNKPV
# [11] = molecular target: T11, β2(h) (antagonist radioligand) (Homo sapiens, UniProt P07550); parameters: CEREP off-target panel, radioligand binding, inhibition of control specific binding; settings: read-out: % Inhibition of Control Specific Binding, Mean
# T11 construct: gene ADRB2; antagonist radioligand
# [12] = molecular target: T12, δ (DOP) (h) (agonist radioligand) (Homo sapiens, UniProt P41143); parameters: CEREP off-target panel, radioligand binding, inhibition of control specific binding; settings: read-out: % Inhibition of Control Specific Binding, Mean
# T12 construct: gene OPRD1; agonist radioligand
# T12 sequence (P41143 whole entry): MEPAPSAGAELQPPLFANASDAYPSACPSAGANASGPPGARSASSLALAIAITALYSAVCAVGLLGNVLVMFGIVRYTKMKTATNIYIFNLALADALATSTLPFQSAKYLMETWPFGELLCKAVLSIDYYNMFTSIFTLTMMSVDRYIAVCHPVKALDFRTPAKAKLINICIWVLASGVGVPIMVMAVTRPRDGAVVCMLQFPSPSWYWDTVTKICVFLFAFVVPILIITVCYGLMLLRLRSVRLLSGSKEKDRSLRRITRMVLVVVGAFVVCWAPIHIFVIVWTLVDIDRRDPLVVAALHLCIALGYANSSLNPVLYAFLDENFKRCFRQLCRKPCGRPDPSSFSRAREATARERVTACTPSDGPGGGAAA
# [13] = molecular target: T13, μ (MOP) (h) (agonist radioligand) (Homo sapiens, UniProt P35372); parameters: CEREP off-target panel, radioligand binding, inhibition of control specific binding; settings: read-out: % Inhibition of Control Specific Binding, Mean
# T13 construct: gene OPRM1; agonist radioligand
# T13 sequence (P35372 whole entry): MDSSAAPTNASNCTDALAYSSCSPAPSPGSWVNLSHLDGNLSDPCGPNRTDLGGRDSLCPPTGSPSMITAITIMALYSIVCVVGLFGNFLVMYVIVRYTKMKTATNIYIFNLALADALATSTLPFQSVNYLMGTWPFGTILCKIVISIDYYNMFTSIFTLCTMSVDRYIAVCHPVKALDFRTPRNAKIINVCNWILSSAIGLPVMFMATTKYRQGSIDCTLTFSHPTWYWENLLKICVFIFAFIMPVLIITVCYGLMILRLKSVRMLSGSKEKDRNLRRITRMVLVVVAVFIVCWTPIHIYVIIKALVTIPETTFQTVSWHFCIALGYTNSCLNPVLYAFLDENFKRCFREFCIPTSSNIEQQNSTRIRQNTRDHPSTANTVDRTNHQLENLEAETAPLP
# [14] = molecular target: T14, COX1(h) (Homo sapiens, UniProt P23219); parameters: CEREP off-target panel, enzyme inhibition; settings: read-out: % Inhibition, Mean (enzymes)
# T14 construct: gene PTGS1
# T14 sequence (P23219 whole entry): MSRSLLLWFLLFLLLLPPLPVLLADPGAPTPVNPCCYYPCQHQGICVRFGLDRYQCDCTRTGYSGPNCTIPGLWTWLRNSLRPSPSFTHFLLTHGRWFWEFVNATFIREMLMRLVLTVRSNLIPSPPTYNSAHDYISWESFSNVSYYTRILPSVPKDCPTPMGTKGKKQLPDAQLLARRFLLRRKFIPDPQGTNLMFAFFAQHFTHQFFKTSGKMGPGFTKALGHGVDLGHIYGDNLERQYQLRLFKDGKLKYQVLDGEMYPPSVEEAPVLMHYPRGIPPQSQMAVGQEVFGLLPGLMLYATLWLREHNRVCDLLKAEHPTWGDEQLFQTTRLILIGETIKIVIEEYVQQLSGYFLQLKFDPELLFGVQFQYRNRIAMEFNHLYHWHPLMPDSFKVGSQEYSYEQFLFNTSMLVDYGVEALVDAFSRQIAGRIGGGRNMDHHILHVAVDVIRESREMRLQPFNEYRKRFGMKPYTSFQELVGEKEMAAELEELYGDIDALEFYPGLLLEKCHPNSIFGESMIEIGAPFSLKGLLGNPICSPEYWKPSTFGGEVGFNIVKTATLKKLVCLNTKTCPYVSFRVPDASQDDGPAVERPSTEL
# [15] = molecular target: T15, COX2(h) (Homo sapiens, UniProt P35354); parameters: CEREP off-target panel, enzyme inhibition; settings: read-out: % Inhibition, Mean (enzymes)
# T15 construct: gene PTGS2
# T15 sequence (P35354 whole entry): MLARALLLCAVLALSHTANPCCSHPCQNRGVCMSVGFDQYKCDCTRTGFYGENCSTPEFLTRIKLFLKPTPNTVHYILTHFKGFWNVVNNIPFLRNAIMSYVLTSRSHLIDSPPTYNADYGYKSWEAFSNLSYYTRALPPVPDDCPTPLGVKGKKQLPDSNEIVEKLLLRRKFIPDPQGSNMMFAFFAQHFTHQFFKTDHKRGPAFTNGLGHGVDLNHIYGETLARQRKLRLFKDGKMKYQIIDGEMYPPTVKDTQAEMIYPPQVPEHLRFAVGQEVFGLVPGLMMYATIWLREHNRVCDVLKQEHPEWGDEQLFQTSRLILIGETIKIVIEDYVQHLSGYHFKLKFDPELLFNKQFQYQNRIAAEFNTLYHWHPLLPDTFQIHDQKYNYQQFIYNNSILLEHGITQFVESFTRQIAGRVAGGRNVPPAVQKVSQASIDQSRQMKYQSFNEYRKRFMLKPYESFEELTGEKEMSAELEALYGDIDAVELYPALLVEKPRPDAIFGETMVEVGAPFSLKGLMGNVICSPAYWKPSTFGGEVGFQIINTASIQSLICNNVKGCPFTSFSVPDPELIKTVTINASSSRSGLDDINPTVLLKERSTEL
# [16] = molecular target: Lck kinase (h) (Homo sapiens, UniProt P06239); parameters: CEREP off-target panel, enzyme inhibition; settings: read-out: % Inhibition, Mean (enzymes)
# Sequence of Lck kinase (h) (P06239 whole entry): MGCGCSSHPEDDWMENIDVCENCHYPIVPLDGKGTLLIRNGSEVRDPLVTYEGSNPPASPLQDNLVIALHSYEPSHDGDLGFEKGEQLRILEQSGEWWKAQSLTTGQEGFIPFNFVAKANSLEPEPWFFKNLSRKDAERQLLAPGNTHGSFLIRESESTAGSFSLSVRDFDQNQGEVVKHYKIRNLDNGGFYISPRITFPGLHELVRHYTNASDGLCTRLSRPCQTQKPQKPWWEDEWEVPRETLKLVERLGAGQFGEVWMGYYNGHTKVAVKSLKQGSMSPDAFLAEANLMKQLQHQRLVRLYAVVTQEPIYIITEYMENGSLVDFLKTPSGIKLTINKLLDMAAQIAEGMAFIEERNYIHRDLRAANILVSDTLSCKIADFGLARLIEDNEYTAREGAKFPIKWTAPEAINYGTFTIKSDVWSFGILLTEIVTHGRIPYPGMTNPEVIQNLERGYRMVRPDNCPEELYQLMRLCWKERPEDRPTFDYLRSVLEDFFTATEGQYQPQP
# [17] = molecular target: PDE3A (h) (Homo sapiens, UniProt Q14432); parameters: CEREP off-target panel, enzyme inhibition; settings: read-out: % Inhibition, Mean (enzymes)
# [18] = molecular target: T16, PDE4D2 (h) (Homo sapiens, UniProt Q08499); parameters: CEREP off-target panel, enzyme inhibition; settings: read-out: % Inhibition, Mean (enzymes)
# T16 construct: gene PDE4D; isoform PDE4D2
# T16 sequence (Q08499 whole entry, canonical isoform): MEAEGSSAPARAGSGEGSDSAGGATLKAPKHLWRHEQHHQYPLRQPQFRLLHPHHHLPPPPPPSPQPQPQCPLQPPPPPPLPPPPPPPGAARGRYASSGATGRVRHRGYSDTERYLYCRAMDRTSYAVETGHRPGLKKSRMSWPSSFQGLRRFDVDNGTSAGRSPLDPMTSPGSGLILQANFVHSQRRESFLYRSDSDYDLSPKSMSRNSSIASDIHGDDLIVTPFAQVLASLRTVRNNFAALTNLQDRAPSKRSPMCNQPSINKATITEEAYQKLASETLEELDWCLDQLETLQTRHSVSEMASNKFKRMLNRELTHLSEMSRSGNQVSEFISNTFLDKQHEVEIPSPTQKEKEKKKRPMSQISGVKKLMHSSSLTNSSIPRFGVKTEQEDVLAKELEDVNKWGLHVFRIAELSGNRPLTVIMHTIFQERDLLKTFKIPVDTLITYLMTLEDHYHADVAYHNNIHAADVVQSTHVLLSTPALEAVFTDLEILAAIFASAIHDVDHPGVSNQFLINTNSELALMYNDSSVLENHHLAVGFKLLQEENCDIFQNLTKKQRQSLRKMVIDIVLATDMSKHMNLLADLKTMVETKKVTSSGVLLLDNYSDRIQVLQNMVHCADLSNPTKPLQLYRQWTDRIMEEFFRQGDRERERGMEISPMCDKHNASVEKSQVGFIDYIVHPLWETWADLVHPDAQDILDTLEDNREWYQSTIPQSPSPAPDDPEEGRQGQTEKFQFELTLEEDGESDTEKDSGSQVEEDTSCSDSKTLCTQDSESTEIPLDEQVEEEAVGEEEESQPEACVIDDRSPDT
# [19] = molecular target: T17, acetylcholinesterase (h) (Homo sapiens, UniProt P22303); parameters: CEREP off-target panel, enzyme inhibition; settings: read-out: % Inhibition, Mean (enzymes)
# T17 construct: gene ACHE
smiles,measurement,setting,value
"CCC(F)(F)C(=O)C[S+]([O-])c1ccc(C(=O)N2CCN(c3cccc(Cl)c3)[C@@H](C)[C@@H]2C)cc1Cl (mixture of isomers) [compound 3, LEI-515]",inhibition at 10 µM,[1],10.6%
same,inhibition at 10 µM,[2],27.6%
same,inhibition at 10 µM,[3],-7%
same,inhibition at 10 µM,[4],19.5%
same,inhibition at 10 µM,[5],2.2%
same,inhibition at 10 µM,[6],-8%
same,inhibition at 10 µM,[7],30.2%
same,inhibition at 10 µM,[8],-4.2%
same,inhibition at 10 µM,[9],9.9%
same,inhibition at 1 µM,[10],21.7%
same,inhibition at 10 µM,[10],59.5%
same,inhibition at 10 µM,[11],26.8%
same,inhibition at 10 µM,[12],48.3%
same,inhibition at 10 µM,[13],20.4%
same,inhibition at 10 µM,[14],5.4%
same,inhibition at 10 µM,[15],9.5%
same,inhibition at 10 µM,[16],-5.3%
same,inhibition at 10 µM,[17],-27.2%
same,inhibition at 10 µM,[18],-16.6%
same,inhibition at 10 µM,[19],4.9%
